The melting point is the temperature of the solid-liquid transition.

Molecules are shown by their SMILES.

`O=C(OCC(O)CO)c1ccc(C=Cc2csc3ccccc23)s1` (centres undefined) yielded a melting point of 102 to 104 °C.

Take `CC(=O)C(C)C(=O)N(c1ccc(Cl)cc1)C(C)C` (centres undefined): the melting point was in the range of 77 to 79 °C.

As to `COc1cccc(Nc2nc(OCC3CCCCC3)c3[nH]cnc3n2)c1`, the melting point was in the range of 186 to 189 °C.

In turn, `COc1ccc(CSCC(=O)NO)cc1OC` displayed a melting point of 78 °C.

In turn, `Cc1ccc(S(=O)(=O)NCC(=O)c2ccccc2)cc1` registered a melting point of 148 to 149 °C.

`NCCNc1ccc2ccccc2n1`: the melting point lay within 124 to 125 °C.

As for `CCCC(=O)OCC(CO)CCn1cnc2cnc(N)nc21` (centres undefined), the melting point lay in the range of 125 to 127 °C.

For the compound `CC(C(=O)OCN1C(=O)CCC(N2C(=O)c3ccccc3C2=O)C1=O)N(C)C(=O)OC(C)(C)C` (centres undefined), the melting point lay in the range of 123 to 125 °C.

Compound `O[C@@H](CNCCOc1ccc2oc(-c3ccon3)cc2c1)COc1ccccc1C(F)(F)F` gave a melting point of 90 to 91 °C.

The compound `CC(C)CCC1(c2ccccc2)CC=CC(=O)O1` (centres undefined) showed a melting point of 134 to 136 °C.

`CC#CCOc1ccc(S(=O)(=O)C(CCCCCC#N)C(=O)NO)cc1` (centres undefined) came in with a melting point of 120 °C.

For the compound `O=C(O)c1ccc(C(F)F)o1`, the melting point lay in the range of 112 to 113 °C.

Compound `CCNC(=O)[C@@H]1C[C@H](OS(C)(=O)=O)CN1C(=O)OC(C)(C)C` yielded a melting point of 138 to 140 °C.

Turning to `COc1ccc(C(=O)OC2C(O)C=C(C)C(=O)CC2(C)C)cc1OC` (centres undefined), the melting point fell in the range of 150 to 152 °C.

With `CC(C)(C)NCc1cc(Br)cc(Br)c1O`, the melting point fell in the range of 173 to 175 °C.

Consider `CC(=O)SCC(Cc1ccc(C)cc1)C(=O)Nc1cccc(C(=O)O)c1` (centres undefined), for which the melting point is 174 to 175 °C.

As for `O=[N+]([O-])CS(=O)(=O)c1ccc(Oc2ccccc2)cc1`, the melting point was in the range of 118 to 120 °C.

Compound `CCNC(=O)Cc1cccc([N+](=O)[O-])c1` came in with a melting point of 115 to 117 °C.

Take `O=C(Nc1ccccc1)C1=C(Nc2ccc(Cl)cc2)COC1=O`: the melting point fell in the range of 209 to 210 °C.

For `COc1ccc(Nc2ccc(OCc3ccccc3)cc2)cc1`, the melting point is 108 °C.

Take `CCN1CCN(C(C)C(=O)NC2(c3ccc4occc4c3)C(=O)Nc3cc(Cl)cc(Cl)c32)CC1` (single isomer, unassigned; (+)): the melting point lay within 137 to 138 °C.

`O=C(CN1C(=O)c2ccccc2C1=O)NNC(=O)c1ncn2c1[C@@H]1CCN1C(=O)c1sccc1-2`: the melting point is greater than 260 °C.

For `N#CCOc1ccc(-c2ccc(=O)n(Cc3ccc(Cl)cc3F)c2)cc1`, the melting point was determined as 160 °C.

In the case of `O=C(Nc1ncco1)C1c2ccccc2Sc2ccccc21`, the melting point fell in the range of 188 to 191 °C.

Compound `O=C(CCl)CCCc1ccc(CCCC(=O)CCl)cc1` came in with a melting point of 70 to 71 °C.

In the case of `S=C1CN=C(c2ccc(Cl)cc2)c2cc(I)ccc2N1`, the melting point lay within 260 to 262 °C.

`O=[N+]([O-])c1cn(CC(I)=C(I)I)c(Cl)c1Cl`: the melting point is 126 to 127 °C.

`NC(=NCC(F)(F)F)Nc1nc(CO)ns1` gave a melting point of 123 to 125 °C.

As to `CSc1c(C(=O)O)ccc(Cl)c1F`, the melting point turned out to be 150 °C.

Consider `COc1ccc(-c2nc(C(=O)OC(C)C)cc(Cl)c2Cl)cc1`, for which the melting point lay within 113 to 116 °C.

For `O=C(O)c1cnc(Nc2cc3c4c(c2)CCCC4CCC3)nc1`, the melting point fell in the range of 296 to 298 °C.

In the case of `CCOc1nc(OCC)c([N+](=O)[O-])c(N2CCS(=O)CC2)n1`, the melting point lay in the range of 130 to 132 °C.

With `COCCn1c(=O)ccc2cnc(Nc3ccccc3)nc21`, the melting point lay within 179 to 180 °C.

As for `Cc1nc2n(c(=O)c1CCN1CCC(C(=O)c3ccc(F)cc3)CC1)CCCN2Cc1ccccc1`, the melting point was 126 °C.

`O=C(O)c1ccc2[nH]c3ccccc3c2c1`: the melting point lay within 271 to 272 °C.

In the case of `CCOP(=O)(CCN1CCC(N(C)S(=O)(=O)c2ccc(Nc3nccc(Nc4ccc(F)c(F)c4)n3)cc2)CC1)OCC`, the melting point was in the range of 93 to 96 °C.

`Cn1c(Nc2cccc(C(F)(F)F)c2)nc2c(-c3cccc(C(=O)NCCO)c3)cccc21` yielded a melting point of 235 to 236 °C.

`Cc1ccc(OCc2sccc2S(=O)(=O)Nc2onc(C)c2Br)cc1` returned a melting point of 128 to 130 °C.

In turn, `CNc1cc(F)ccc1C(=O)Cc1nnnn1C` registered a melting point of 132 to 134 °C.

In turn, `COCCN(c1cccc2cc(C(=O)O)[nH]c12)S(=O)(=O)c1cccs1` showed a melting point of 216 to 217 °C.

Compound `COC(=O)c1ccc(Cl)cc1NC(=O)CSc1cccc(OC)c1` displayed a melting point of 72 to 73 °C.

Regarding `CCOC(=O)c1cc(CC)sc1Nc1ccccc1[N+](=O)[O-]`, the melting point was 66 to 68 °C.

The compound `ON=C1CCCc2cc(OCCn3ccnc3)ccc21` returned a melting point of 177 to 179 °C.

Regarding `COc1ccccc1Sc1c(O)c2c(Cl)cc(Cl)cc2[nH]c1=O`, the melting point lay in the range of 269 to 270 °C.

In turn, `O=C(OCc1ccccc1)c1cc2cc(OCc3ccccc3)ccc2cc1OCc1ccccc1` displayed a melting point of 99 to 102 °C.

Take `Cn1c2ccc(Cl)cc2c2c(CBr)nn(-c3ccccc3)c(=O)c21`: the melting point fell in the range of 253 to 254 °C.

`NS(=O)(=O)c1ccc(-c2cnn(CC=C(F)F)c(=O)c2-c2ccc(F)cc2)cc1` yielded a melting point of 191 to 194 °C.

Compound `O=C(O)c1cn(-c2ccc(F)cc2F)c2c(F)c(N3Cc4ccc(Br)cc4C3)c(F)cc2c1=O` had a melting point of 251 to 257 °C.

Regarding `O=C(O)CC(CC(=O)O)NC(=O)OCC1c2ccccc2-c2ccccc21`, the melting point fell in the range of 189 to 190 °C.

In the case of `CC(=O)Oc1cccc2sc(-c3ccc(C(=O)O)cc3)nc12`, the melting point lay within 229 to 233 °C.

As for `Nc1ccc(Sc2ccc(Cl)cc2)nc1`, the melting point lay within 55 to 57 °C.

In turn, `COc1ccc(CNc2nc(OCc3ccccn3)ncc2C(=O)OCc2ccccn2)cc1Cl` came in with a melting point of 115 to 120 °C.

With `O=C1C(c2cc3c(cc2O)OCC3)c2cc(F)ccc2N1C(c1ccccc1)c1ccccc1` (centres undefined), the melting point fell in the range of 179 to 181 °C.

`O=C(NCc1ccccn1)OCCOCCOC(=O)NCC1CCCCC1` showed a melting point of 65 to 67 °C.

As to `CCc1nn(C(=O)NS(=O)(=O)c2c(C)cccc2Cl)c(=O)n1C`, the melting point came out at 176 °C.

Compound `CCN(CC)c1cccc(OCCOS(N)(=O)=O)c1` had a melting point of 105 to 106 °C.

The compound `BrCc1ccc(-c2nnn(C(c3ccccc3)(c3ccccc3)c3ccccc3)n2)cc1` registered a melting point of 165 to 172 °C.

On to `CCOc1ccc(F)cc1NC(=O)Nc1ccc(N2CCN(C(=O)OC(C)(C)C)CC2)cc1`, for which the melting point lay within 168 to 169 °C.

Regarding `c1ccc2c(c1)c1c(N3CCCC3)nc(N3CCCC3)nc1n2CCn1ccnc1`, the melting point lay within 181 to 183 °C.

As for `OC1CSC(Oc2cncc(-c3ccccc3)c2)C(O)C1O` (centres undefined), the melting point stood at 169 °C.

In turn, `Cc1oc(-c2ccccc2)nc1COc1cc(COc2ccccc2CC(=O)O)on1` displayed a melting point of 152 to 153 °C.

Regarding `Cc1cn(-c2cc(NC(=O)c3ccc(Cl)c(C#Cc4cnc(NC5CC5)nc4)c3)cc(C(F)(F)F)c2)cn1`, the melting point lay in the range of 163 to 165 °C.

`C[Si](C)(C)CCCNC(=O)n1cc(F)c(=O)[nH]c1=O` registered a melting point of 146 to 149 °C.

Consider `CC(C)(C)OC(=O)N1CCc2c(/C=C/[N+](=O)[O-])c3ccccc3n2CC1`, for which the melting point fell in the range of 227 to 230 °C.

(Values after a melting point compilation (Tetko et al.; mined from patent text by program, amines drawn as free bases though some values may be those of a salt).)
